# Reference: patent US9067937B2 (priority 2012, dated 2015)
# Where a name gives a salt, the structure may show the parent alone. Read-outs that look alike come from different tables or passages of the source.
# Legend:
# [1] = tested on: DU4475 cells; experiment: Cell-based assay, anti-proliferative activity (Cell Counting Kit-8, 72 hours); parameters: species or system human; details: read-out: IC50 (μM) (DU4475)
# Description: (§1) Active candidate inhibitors against MELK were evaluated for their target-specific cytotoxicity using 22Rv1, T47D, A549, DU4475 and HT-1197 cells was used for negative control. 100 micro-L of cell suspension was seeded onto 96-well microtiter plate (ViewPlate-96FTC, PerkinElmer). The initial cell concentration of 22Rv1, T47D, A549, DU4475, and HT1197 were 3,000 cells/well, 2,000 cells/well and 2,500 cells/well, respectively. Cellular growth was determined using Cell Counting Kit-8 (DOJINDO) at 72 hours after the exposure of the candidate inhibitors. […] Accurate IC50 values were calculated as described previously.
# [2] = tested on: 22Rv1 cells; experiment: as above; parameters: species or system human; details: read-out: IC50 (μM) (22Rvl)
# Description: as §1
# [3] = tested on: T47D cells; experiment: as above; parameters: species or system human; details: read-out: IC50 (μM) (T47D)
# Description: as §1
# [4] = tested on: A549 cells; experiment: as above; parameters: species or system human; details: read-out: IC50 (μM) (A549)
# Description: as §1
# [5] = target: MELK (Homo sapiens, UniProt Q14680); experiment: Kinase assay (IMAP fluorescence polarization, FITC-labeled histone H3 peptide); assay type: biochemical; details: 50 micro-M ATP
# Chain of MELK (Q14680 whole entry, looked up): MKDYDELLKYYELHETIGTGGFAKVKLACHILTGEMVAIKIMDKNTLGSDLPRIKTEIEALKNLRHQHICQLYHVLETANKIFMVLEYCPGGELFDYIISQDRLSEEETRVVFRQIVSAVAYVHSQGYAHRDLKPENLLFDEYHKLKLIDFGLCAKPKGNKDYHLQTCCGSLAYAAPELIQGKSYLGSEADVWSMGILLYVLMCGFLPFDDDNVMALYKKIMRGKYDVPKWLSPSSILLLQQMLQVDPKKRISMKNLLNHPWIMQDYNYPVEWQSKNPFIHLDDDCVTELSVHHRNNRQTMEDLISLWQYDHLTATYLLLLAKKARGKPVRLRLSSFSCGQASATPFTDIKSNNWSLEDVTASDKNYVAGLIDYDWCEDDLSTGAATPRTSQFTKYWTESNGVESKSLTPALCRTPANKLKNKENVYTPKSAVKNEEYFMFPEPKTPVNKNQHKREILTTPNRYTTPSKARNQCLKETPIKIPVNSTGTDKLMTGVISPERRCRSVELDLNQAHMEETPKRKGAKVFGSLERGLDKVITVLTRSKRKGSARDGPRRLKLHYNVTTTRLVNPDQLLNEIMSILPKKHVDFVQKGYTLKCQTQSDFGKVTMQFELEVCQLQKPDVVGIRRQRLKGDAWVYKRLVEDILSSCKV
# Description: MELK activity was determined in the presence or absence of compounds using fluorescein isothiocyanate-labeled (FITC-labeled) histone H3 peptide as a substrate. […] The serially diluted compounds, 0.8 ng/micro-L […] (Carna Biosciences) and 100 nM FITC-labeled histone H3 peptide were reacted in a reaction buffer (20 mM HEPES, 0.01% Tween-20, 0.3 mM MgCl2, 2 mM dithiothreitol, 50 micro-M ATP, pH 7.4) at room temperature for 1 hour. The reaction was stopped by the addition of three fold assay volume of progressive binding solution. […] IC50 values were calculated by nonlinear four parameter fit using SigmaPlot, version 10.0 (Systat Software, Inc.).
# [6] = tested on: HT1197 cells; experiment: Cell-based assay, anti-proliferative activity, MELK-negative control (Cell Counting Kit-8, 72 hours); parameters: species or system human; details: read-out: IC50 (μM) (HTll97)
# Description: as §1, with “100” for “Active candidate inhibitors against MELK were evaluated for their target-specific cytotoxicity using 22Rv1, T47D, A549, DU4475 and HT-1197 cells was used for negative control. 100”
# [7] = HT1197 cells (MELK-negative control), 72 hours
Compound,"IC50 ([1]; DU4475 cells, 72 hours) [µM]","IC50 ([2]; 22Rv1 cells, 72 hours) [µM]","IC50 ([3]; T47D cells, 72 hours) [µM]","IC50 ([4]; A549 cells, 72 hours) [µM]",IC50 [5] [µM],"IC50 [6, 7] [µM]","IC50 ([1]; Homo sapiens, DU-4475, 72 h) [µM]","IC50 ([2]; Homo sapiens, 22Rv1, 72 h) [µM]","IC50 ([3]; Homo sapiens, T47D, 72 h) [µM]","IC50 ([4]; Homo sapiens, A549, 72 h) [µM]","IC50 ([6]; Homo sapiens, HT1197, 72 h) [µM]"
"1-[6-(3,5-Dichloro-4-hydroxyphenyl)-4-(trans-4-hydroxycyclohexylamino)-1,5-naphthyridin-3-yl]-ethanone hydrochloride [Example 91]",0.016,0.072,0.038,0.048,0.015,0.33,,,,,
"1-[6-(3-Chloro-5-fluoro-4-hydroxyphenyl)-4-(trans-4-hydroxycyclohexylamino)-1,5-naphthyridin-3-yl]ethanone hydrochloride [Example 92]",0.018,0.061,0.036,0.053,0.012,0.53,,,,,
"CC(=O)c1cnc2ccc(Cl)nc2c1N[C@H]1CC[C@H](CN(C)C)CC1 [Example 1, 1-(6-Chloro-4-{trans-4-[(dimethylamino)methyl]cyclohexylamino}-1,5-naphthyridin-3-yl)-ethanone]",,,,,0.31,,2.5,5,5.3,2.7,10
"CC(=O)c1cnc2ccc(-c3cc(Cl)c(O)c(Cl)c3)nc2c1N[C@H]1CC[C@H](N(C)C)CC1 [Example 2, 1-{6-(3,5-Dichloro-4-hydroxyphenyl)-4-[trans-4-(dimethylamino)cyclohexylamino]-1,5-naphthyridin-3-yl}ethanone dihydrochloride]",,,,,0.0003,,0.0015,0.0032,0.0018,0.004,0.19
"CC(=O)c1cnc2ccc(-c3cc(F)c(O)c(Cl)c3)nc2c1N[C@H]1CC[C@H](N(C)C)CC1 [Example 3, 1-{6-(3-Chloro-5-fluoro-4-hydroxyphenyl)-4-[trans-4-(dimethylamino)cyclohexylamino]-1,5-naphthyridin-3-yl}ethanone dihydrochloride]",,,,,0.0012,,0.0033,0.006,0.0026,0.0091,0.39
"CN(C)C[C@H]1CC[C@H](Nc2c(C(=O)C3CC3)cnc3ccc(-c4cc(Cl)c(O)c(Cl)c4)nc23)CC1 [Example 4, Cyclopropyl(6-(3,5-dichloro-4-hydroxyphenyl)-4-{trans-4-[(dimethylamino)methyl]-cyclohexylamino}-1,5-naphthyridin-3-yl)methanone dihydrochloride]",,,,,0.0005,,0.0026,0.0064,0.0055,0.0062,0.036
"CN(C)C[C@H]1CC[C@H](Nc2c(C(=O)C3CC3)cnc3ccc(-c4cc(F)c(O)c(Cl)c4)nc23)CC1 [Example 5, (6-(3-Chloro-5-fluoro-4-hydroxyphenyl)-4-{trans-4-[(dimethylamino)methyl]cyclohexyl-amino}-1,5-naphthyridin-3-yl)(cyclopropyl)methanone dihydrochloride]",,,,,0.0008,,0.003,0.0057,0.0029,0.0061,0.018
"CC(=O)c1cnc2ccc(-c3cc(F)c(O)c(Cl)c3)nc2c1N[C@H]1CC[C@H](CN(C)C)CC1 [Example 7, 1-{6-(3-Chloro-5-fluoro-4-hydroxyphenyl)-4-({trans-4-[(dimethylamino)methyl]cyclohexyl}-amino)-1,5-naphthyridin-3-yl}ethanone dihydrochloride]",,,,,0.0013,,0.0036,0.0061,0.0035,0.0097,0.11
"COc1cc(-c2ccc3ncc(C(C)=O)c(N[C@H]4CC[C@H](CN(C)C)CC4)c3n2)cc(Cl)c1O [Example 8, 1-(6-(3-Chloro-4-hydroxy-5-methoxyphenyl)-4-{trans-4-[(dimethylamino)methyl]cyclohexyl-amino}-1,5-naphthyridin-3-yl)ethanone dihydrochloride]",,,,,0.0015,,0.0064,0.044,0.013,0.024,0.24
"CC(=O)c1cnc2ccc(-c3cc(Cl)c(O)c(Cl)c3)nc2c1N[C@H]1CC[C@H](CCN(C)C)CC1 [Example 9, 1-[6-(3,5-Dichloro-4-hydroxyphenyl)-4-({trans-4-[2-(dimethylamino)ethyl]cyclohexyl}amino)-1,5-naphthyridin-3-yl]ethanone dihydrochloride]",,,,,0.0007,,0.0055,0.011,0.0066,0.013,0.27
"CC(=O)c1cnc2ccc(-c3cc(F)c(O)c(Cl)c3)nc2c1N[C@H]1CC[C@H](CCN(C)C)CC1 [Example 10, 1-(6-(3-Chloro-5-fluoro-4-hydroxyphenyl)-4-{trans-4-[2-(dimethylamino)ethyl]-cyclohexylamino}-1,5-naphthyridin-3-yl)ethanone dihydrochloride]",,,,,0.0014,,0.0049,0.01,0.0039,0.012,0.2
"CC(=O)c1cnc2ccc(-c3ccc(O)c(OC(F)(F)F)c3)nc2c1N[C@H]1CC[C@H](CN(C)C)CC1 [Example 11, 1-(4-{trans-4-[(Dimethylamino)methyl]cyclohexylamino}-6-[4-hydroxy-3-(trifluoromethoxy)-phenyl]-1,5-naphthyridin-3-yl)ethanone dihydrochloride]",,,,,0.0027,,0.049,0.066,0.027,0.042,0.14
"[2H]C([2H])([2H])N(C[C@H]1CC[C@H](Nc2c(C(C)=O)cnc3ccc(-c4cc(Cl)c(O)c(Cl)c4)nc23)CC1)C([2H])([2H])[2H] [Example 28, 1-(6-(3,5-Dichloro-4-hydroxyphenyl)-4-(trans-4-((dimethylamino-d6)methyl)-cyclohexylamino)-1,5-naphthyridin-3-yl)ethanone dihydrochloride]",,,,,,,0.0022,0.0052,0.004,0.006,0.14
"CC(=O)c1cnc2ccc(-c3cc(F)c(O)c(Cl)c3)nc2c1N[C@H]1CC[C@H](NC(=O)[C@@H]2CCCN2)CC1 [Example 76, (S)—N-{4-[3-Acetyl-6-(3-chloro-5-fluoro-4-hydroxyphenyl)-1,5-naphthyridin-trans-4-ylamino]-cyclohexyl}pyrrolidine-2-carboxamide dihydrochloride]",,,,,,,0.019,0.073,0.03,0.32,8.7
"CC(=O)c1cnc2ccc(-c3cc(Cl)c(O)c(Cl)c3)nc2c1NC[C@H]1CC[C@H](N(C)C)CC1 [Example 89, dihydrochloride]",,,,,,,0.0063,0.028,0.023,0.041,0.9
"CC(=O)c1cnc2ccc(-c3cc(Cl)c(O)c(Cl)c3)nc2c1N[C@H]1CC[C@@H](CN(C)C)CC1 [Example 94, 1-{6-(3,5-Dichloro-4-hydroxyphenyl)-4-({cis-4-[(dimethylamino)methyl]-cyclohexyl}amino)-1,5-naphthyridin-3-yl}ethanone dihydrochloride]",,,,,,,0.0073,0.028,0.02,0.039,0.25
"CC(C)C(=O)c1cnc2ccc(-c3cc(Cl)c(O)c(Cl)c3)nc2c1N[C@H]1CC[C@H](CN(C)C)CC1 [Example 216, 1-[6-(3,5-dichloro-5-4-hydroxyphenyl)-4-({trans-4-[(dimethylamino)methyl]cyclohexyl}amino)-1,5-naphthyridin-3-yl]-2-methylpropan-1-one dihydrochloride]",,,,,0.0019,,,,,0.012,0.025
"CC(C)C(=O)c1cnc2ccc(-c3cc(F)c(O)c(Cl)c3)nc2c1N[C@H]1CC[C@H](CN(C)C)CC1 [Example 217, dihydrochloride]",,,,,0.0018,,,,,0.021,0.055
